Reference: US8507551B2, “Antimicrobial therapy for bacterial infections” (priority 2005, dated 2013)

Experiments:
WT and ΔCrtM S. aureus = test: Protease and cathelicidin sensitivity assays; type: cell-based, Staphylococcus aureus; settings: WT vs ΔCrtM S. aureus, 2 h at 37° C., FIG. 6d, e
Experimental: Human neutrophil elastase, and cathepsin G were purchased from Calbiochem. The antimicrobial peptide mCRAMP was synthesized at the Louisiana State University Protein Facility (Martha Juban, Director). S. aureus cultures were diluted (1:2,000) in 10 mM phosphate buffer (pH 7.2)+0.5% LB to 1×10^6 CFU/ml. Ninety μl of this bacterial suspension was added to replicate wells in a 96-well plate. Dilutions of the cathepsin G (20 and 100 mU/ml), human neutrophil elastase (12.5 and 50 μg/ml), and murine CRAMP (0.4-3 μM) were prepared in 10 mM phosphate buffer and added to wells in 10 μl volume; 10 mM phosphate buffer alone was used as a negative control. After 2 h incubation at 37° C., 25 μl aliquots of each well were serially diluted in PBS and plated on THB. Each experiment was performed in duplicate and repeated.

[1] = system: WT and ΔCrtM S. aureus in human neutrophils; settings: FIG. 2d
Experimental: Neutrophils were purified from healthy human volunteers using a Histopaque gradient (Sigma) per manufacturer's directions. Intracellular survival assays were performed as follows. Bacterial cultures were washed twice in PBS, diluted to a concentration of 4.5×10^6 cfu in 100 μl RPMI+10% FCS, and mixed with 3×10^5 neutrophils in the same media (multiplicity of infection, MOI=15:1), centrifuged at 700×g for 5 min, then incubated at 37° C. in a 5% CO2 incubator. Gentamicin (Gibco) (final concentration 400 μg/ml for S. aureus and 100 μg/ml for S. pyogenes) was added after 10 min to kill extracellular bacteria. At specified time points, the contents of sample wells were withdrawn, centrifuged to pellet the neutrophils, and washed to remove the antibiotic medium. Neutrophils were then lysed in 0.02% triton-X, and cfu calculated by plating on THA. Several assays were repeated with addition of a step involving preincubation of the bacterial inoculum with 10% autologous human serum for 15 min on ice.

[2] = system: WT and ΔCrtM S. aureus in mouse blood; settings: FIG. 6c
Experimental: Bacteria were washed twice in PBS, diluted to an inoculum of 10^4 cfu in 25 μl PBS, and mixed with 75 μl of freshly drawn human or mouse blood in heparinized tubes. The tubes were incubated at 37° C. for 4 h with agitation, at which time dilutions were plated on THA for enumeration of surviving cfu.

ΔCrtM mutant S. aureus [3] = test: Singlet oxygen susceptibility assay (methylene blue and light), ΔCrtM mutant control; type: cell-based, Staphylococcus aureus; settings: ΔCrtM mutant exposed to SKF 525-A, FIG. 4b
Experimental: (§1) Wild-type and ΔCrtM mutant S. aureus were cultured in the presence or absence of SKF 525-A at the indicated concentrations. Depicted are the observed effects on A) pigmentation phenotype, B) singlet oxygen susceptibility, and C) survival in murine whole blood. Results shown are representative of at least three experiments.
(§2) Tests for susceptibility to oxidants were performed either in PBS (S. aureus) or THB (S. pyogenes). Hydrogen peroxide (H2O2) was added to 1.5% final concentration, […] bacteria incubated at 37° C. for 1 h, then 1,000 U/ml of catalase (Sigma) added to quench residual H2O2. […] For the singlet oxygen assay, 10^8 S. aureus or 4×10^8 S. pyogenes were incubated at 37° C. in individual wells of a 24-well culture plate in the presence or absence of 1-6 μg/ml methylene blue and situated exactly 10 cm from a 100-watt light source. Bacterial viability was assessed after 1-3 h by plating dilutions on THA.
(§3) Given the protective effect provided to the bacteria by the golden yellow pigments, a pharmacologic agent that inhibits carotenogenesis might render S. aureus more susceptible to immune clearance.

WT S. aureus [4] = test: Singlet oxygen susceptibility assay (methylene blue and light), WT strain; type: cell-based, Staphylococcus aureus; settings: WT S. aureus cultured with SKF 525-A, FIG. 4b
Experimental: as §1, §2, §3

WT strain of S. aureus [5] = settings: earlier report; moderate residual accumulation of δ carotenoid intermediate noted; cited from earlier work
WT S. aureus [6] = test: Whole blood killing assay, WT strain; type: cell-based, Staphylococcus aureus; settings: WT S. aureus cultured with SKF 525-A, FIG. 4c
Experimental: Wild-type and ΔCrtM mutant S. aureus were cultured in the presence or absence of SKF 525-A at the indicated concentrations. […] Results shown are representative of at least three experiments.
as §3

ΔCrtM mutant S. aureus [7] = test: Whole blood killing assay, ΔCrtM mutant control; type: cell-based, Staphylococcus aureus; settings: ΔCrtM mutant exposed to SKF 525-A, FIG. 4c
Experimental: as §1, §3

WT strain of S. aureus [8] = test: Pigment production of S. aureus grown in the presence of the agent; type: cell-based, Staphylococcus aureus; settings: FIG. 4a
Experimental: as §1
Wild-type S. aureus strain (Pig1), isolated from the skin of a child with atopic dermatitis. Streptococcus pyogenes strain 5448 is a well-characterized serotype M1T1 clinical isolate^18. CD1 and C57Bl/6 mice were purchased from Charles River. The gp91^Phox−/− mice were bred at the Veteran's Administration Medical Center, San Diego and maintained on trimethoprim/sulfamethoxazole prophylaxis until 3 d prior to experiments. S. aureus and S. pyogenes were propagated in Todd-Hewitt broth (THB) or on THB agar (Difco, Detroit, Mich.). Unless otherwise indicated, all experiments were performed with bacteria derived from S. aureus 36-48 h stationary phase cultures or S. pyogenes 24 h stationary phase cultures, a point when pigmentation phenotypes were readily apparent.
Stationary phase (48 h) cultures of WT S. aureus Pig1 and its isogenic ΔCrtM mutant were subjected to methanol extraction. The absorbance profile of the extracts was measured with a MBA 2000 spectrophotometer (Perkin Elmer). […]

In the case of “human neutrophil elastase: granule protease purchased from Calbiochem”, the “susceptibility of S. aureus to antimicrobial action” value (“susceptibility of S. aureus” below) (WT and ΔCrtM S. aureus) is reported as “resistant”.

With “mCRAMP: murine cathelicidin antimicrobial peptide, synthesized at Louisiana State University Protein Facility (ISRLAGLLRKGGEKIGEKLKKIGQKIKNFFQKLVPQPE; Cathelin-related antimicrobial peptide; UniProt P51437 135-172, looked up)” the “susceptibility of S. aureus” value (WT and ΔCrtM S. aureus) was “equally susceptible”.

With `c1ccc2c(c1)[I+]c1ccccc1-2` [DPI, diphenyleneiodonium] the “survival of WT and ΔCrtM S. aureus in human neutrophils when oxidative burst inhibited” value [1] was “survived equally well” and the “survival of WT and ΔCrtM S. aureus in mouse blood when oxidative burst inhibited” value [2] was “survived equally well”.

In the case of `CCCC(C(=O)OCCN(CC)CC)(c1ccccc1)c1ccccc1` [SKF 525-A, 2-diethylaminoethyl-2,2-diphenyl-valerate], the “effect on oxidant susceptibility” value (ΔCrtM mutant S. aureus [3]) is listed as “no significant effects”, the “susceptibility to singlet oxygen killing” value (WT S. aureus [4]) is listed as “dose-dependent increase” and the “pigment formation in S. aureus (previously shown)” value (WT strain of S. aureus [5]) is listed as “inhibit pigment formation”. For the same molecule, the “ability to survive in human whole blood” value (WT S. aureus [6]) was “decrease”, the “effect on blood survival” value (ΔCrtM mutant S. aureus [7]) was “no significant effects” and the pigment production (WT strain of S. aureus [8]) was “dose-dependent decrease”.

With “cathepsin G: granule protease purchased from Calbiochem” the “susceptibility of S. aureus” value (WT and ΔCrtM S. aureus) was “no difference”.
